Results published in patent US20090023721A1, “Novel Substituted Tetracyclic Tetrahydrofuran, Pyrrolidine and Tetrahydrothiophene Derivatives and Their Use as a Medicament” (priority 2005, published 2009).
pIC50: −log10 of the molar value. Where two headings read alike, the source gives them in different places.

Columns and labels:
[1] = target: T1, human cloned 5-HT2C receptor, expressed in CHO cells (Homo sapiens, UniProt P28335); assay: In vitro radioligand binding affinity for 5-HT2C receptor ([3H]mesulergine); conditions: for IC50 / h-5HT2C: human cloned 5-HT2C receptor in CHO cells, [3H]mesulergine; for IC50: read-out: h-5HT2C (converted)
T1 construct: expressed in transfected cells; host or cells: CHO cells
T1 sequence (P28335 33-458): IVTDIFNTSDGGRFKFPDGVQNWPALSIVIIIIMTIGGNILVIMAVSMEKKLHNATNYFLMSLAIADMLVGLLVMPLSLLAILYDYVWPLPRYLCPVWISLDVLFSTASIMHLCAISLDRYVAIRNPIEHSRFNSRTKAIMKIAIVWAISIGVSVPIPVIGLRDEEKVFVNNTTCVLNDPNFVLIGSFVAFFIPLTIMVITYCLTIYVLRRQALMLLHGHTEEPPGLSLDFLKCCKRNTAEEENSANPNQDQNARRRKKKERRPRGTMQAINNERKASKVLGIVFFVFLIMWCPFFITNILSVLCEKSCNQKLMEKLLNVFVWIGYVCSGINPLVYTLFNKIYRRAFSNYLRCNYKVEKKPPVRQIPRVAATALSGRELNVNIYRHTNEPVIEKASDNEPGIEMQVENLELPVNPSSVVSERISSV
Description: The interaction of the compounds of Formula (I) with 5-HT2A and 5-HT2C receptors was assessed in in vitro radioligand binding experiments. […] During the incubation, the radioligands bind to the receptor. When equilibrium of binding is reached, the receptor bound radioactivity is separated from the non-bound radioactivity, and the receptor bound activity is counted. The interaction of the test compounds with the receptors is assessed in competition binding experiments. Various concentrations of the test compound are added to the incubation mixture containing the tissue preparation and the radioligand. Binding of the radioligand will be inhibited by the test compound in proportion to its binding affinity and its concentration.

[2] = target: T2, human cloned 5-HT2A receptor, expressed in L929 cells (Homo sapiens, UniProt P28223); assay: In vitro radioligand binding affinity for 5-HT2A receptor ([125I]R91150); conditions: for IC50 / h-5HT2A: human cloned 5-HT2A receptor in L929 cells, [125I]R91150; for IC50: read-out: h-5HT2A (converted)
T2 construct: expressed in transfected cells; host or cells: L929 cells
T2 sequence (P28223 whole entry): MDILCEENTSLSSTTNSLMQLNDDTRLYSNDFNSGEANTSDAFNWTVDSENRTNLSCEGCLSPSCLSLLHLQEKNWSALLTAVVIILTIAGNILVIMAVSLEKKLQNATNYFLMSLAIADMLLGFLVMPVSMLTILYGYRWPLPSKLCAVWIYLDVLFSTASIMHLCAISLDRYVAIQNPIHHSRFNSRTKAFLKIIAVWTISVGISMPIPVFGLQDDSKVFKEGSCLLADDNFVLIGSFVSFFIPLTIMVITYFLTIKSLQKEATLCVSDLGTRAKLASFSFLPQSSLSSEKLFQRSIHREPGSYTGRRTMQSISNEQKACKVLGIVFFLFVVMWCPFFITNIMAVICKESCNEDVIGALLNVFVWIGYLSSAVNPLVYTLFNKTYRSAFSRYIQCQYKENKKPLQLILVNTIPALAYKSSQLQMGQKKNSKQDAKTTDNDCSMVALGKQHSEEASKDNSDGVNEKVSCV
Description: The interaction of the compounds of Formula (I) with 5-HT2A and 5-HT2C receptors was assessed in in vitro radioligand binding experiments. In general, a low concentration of a radioligand with a high binding affinity for the receptor is incubated with a sample of a tissue preparation enriched in a particular receptor (1 to 5 mg tissue) in a buffered medium (0.2 to 5 ml). During the incubation, the radioligands bind to the receptor. When equilibrium of binding is reached, the receptor bound radioactivity is separated from the non-bound radioactivity, and the receptor bound activity is counted. The interaction of the test compounds with the receptors is assessed in competition binding experiments. Various concentrations of the test compound are added to the incubation mixture containing the tissue preparation and the radioligand. Binding of the radioligand will be inhibited by the test compound in proportion to its binding affinity and its concentration. The affinities of the compounds for the 5-HT2 receptors were measured by means of radioligand binding studies conducted with: (a) human cloned 5-HT2A receptor, expressed in L929 cells using [^125I]R91150 as radioligand and (b) human cloned 5-HT2C receptor, expressed in CHO cells using [^3H]mesulergine as radioligand.

NET = target: T3, NET (Rattus norvegicus, UniProt Q9WTR4); assay: In vitro determination of NET reuptake inhibition ([3H]Nixosetine binding, rat brain cortex membranes)
T3 construct: Cortex from rat brain was collected and homogenised; from tissue; host or cells: rat brain cortex membranes
T3 sequence (Q9WTR4 1-597): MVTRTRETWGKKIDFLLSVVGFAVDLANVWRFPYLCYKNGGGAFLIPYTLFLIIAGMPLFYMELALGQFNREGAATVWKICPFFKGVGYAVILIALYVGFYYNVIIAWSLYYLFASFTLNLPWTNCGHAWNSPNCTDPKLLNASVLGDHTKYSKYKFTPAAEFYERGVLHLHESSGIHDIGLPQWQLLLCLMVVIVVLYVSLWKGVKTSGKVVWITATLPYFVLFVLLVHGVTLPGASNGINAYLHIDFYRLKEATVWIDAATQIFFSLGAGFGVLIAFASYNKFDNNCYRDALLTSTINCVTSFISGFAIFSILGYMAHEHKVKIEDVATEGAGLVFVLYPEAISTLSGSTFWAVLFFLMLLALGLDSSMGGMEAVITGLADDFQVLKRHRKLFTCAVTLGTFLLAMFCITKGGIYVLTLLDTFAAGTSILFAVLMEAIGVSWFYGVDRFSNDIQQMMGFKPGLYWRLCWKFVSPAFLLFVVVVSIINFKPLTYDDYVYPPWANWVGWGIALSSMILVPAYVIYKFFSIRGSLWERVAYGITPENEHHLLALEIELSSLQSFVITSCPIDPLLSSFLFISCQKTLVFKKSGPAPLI
Description: Cortex from rat brain was collected and homogenised using an Ultra-Turrax T25 and a Dual homogeniser in ice-cold homogenising buffer containing Tris, NaCl and KCl (50 mM, 120 mM and 5 mM, respectively, pH 7.4) prior to dilution to an appropriate protein concentration optimised for specific and non-specific binding. […] Membrane-bound activity was detected by filtration through a Packard Filtermate harvester onto GF/B Unifilterplates, washed with ice-cold Tris-HCl buffer, containing NaCl and KCl (50 mM, 120 mM and 4 mM; pH 7.4; 6×0.5 ml). Filters were allowed to dry for 24 h before adding scintillation fluid. Scintillation fluid was allowed to saturate filters for 24 h before counting in a Topcount scintillation counter. Percentage specific bound and competition binding curves were calculated using S-Plus software (Insightful).

[3] = target: T4, human Dopamine D2L receptor (Homo sapiens, UniProt P14416); assay: In vitro binding affinity for human D2L receptor ([3H]Spiperone); conditions: for h-D2L / IC50: human D2L receptor-transfected CHO cell membranes, [3H]Spiperone; for IC50: read-out: h-D2L (converted)
T4 construct: expressed in transfected cells; host or cells: CHO cells (frozen membranes)
T4 sequence (P14416 whole entry): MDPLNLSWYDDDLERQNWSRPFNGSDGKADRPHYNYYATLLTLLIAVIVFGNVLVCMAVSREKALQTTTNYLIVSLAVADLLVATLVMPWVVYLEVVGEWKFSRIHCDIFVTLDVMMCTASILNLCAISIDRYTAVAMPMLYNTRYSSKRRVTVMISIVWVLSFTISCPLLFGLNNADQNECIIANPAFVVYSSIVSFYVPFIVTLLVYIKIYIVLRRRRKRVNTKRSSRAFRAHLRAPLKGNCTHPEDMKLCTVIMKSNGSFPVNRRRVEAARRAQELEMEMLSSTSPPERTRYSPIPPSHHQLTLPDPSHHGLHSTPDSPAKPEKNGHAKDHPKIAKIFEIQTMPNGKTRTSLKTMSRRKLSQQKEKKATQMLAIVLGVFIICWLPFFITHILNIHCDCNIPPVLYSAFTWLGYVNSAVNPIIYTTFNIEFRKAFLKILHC
Description: Frozen membranes of human Dopamine D2L receptor-transfected CHO cells were thawed, briefly homogenised using an Ultra-Turrax T25 homogeniser and diluted in Tris-HCl assay buffer containing NaCl, CaCl2, MgCl2, KCl (50, 120, 2, 1, and 5 mM respectively, adjusted to pH 7.7 with HCl) to an appropriate protein concentration optimised for specific and non-specific binding. Radioligand [^3H]Spiperone (NEN, specific activity ˜70 Ci/mmol) was diluted in assay buffer at a concentration of 2 nmol/L. Prepared radioligand (50 μl), along with 50 μl of either the 10% DMSO control, Butaclamol (10-6 mol/l final concentration), or compound of interest, was then incubated (30 min, 37° C.) with 400 μl of the prepared membrane solution. Membrane-bound activity was filtered through a Packard Filtermate harvester onto GF/B Unifilterplates and washed with ice-cold Tris-HCl buffer (50 mM; pH 7.7; 6×0.5 ml). Filters were allowed to dry before adding scintillation fluid and counting in a Topcount scintillation counter. Percentage specific bound and competition binding curves were calculated using S-Plus software (Insightful).

Row | SMILES | IC50 [1] [nM] | IC50 [2] [nM] | pIC50 (NET) | further results
1 | CN(C)CC1CO[C@@H]2c3cc(F)ccc3Cc3ccccc3[C@@H]12 (mixture of isomers) [compound 47, [(3aR,12bS)-11-fluoro-3,3a,8,12b-tetrahydro-2H-dibenzo[3,4:6,7]cyclohepta[1,2-b]-furan-3-yl]-N,N-dimethylmethanamine] | 1580 | 3800 | 7.96 | –
2 | CN(C)CC1CO[C@H]2c3cc(F)ccc3Cc3ccccc3[C@@H]12 (mixture of isomers) [compound 48, [(3aR,12bR)-11-fluoro-3,3a,8,12b-tetrahydro-2H-dibenzo[3,4:6,7]cyclohepta[1,2-b]-furan-3-yl]-N,N-dimethylmethanamine] | 3020 | 6170 | 6.65 | –
3 | CN[C@@H]1CO[C@@H]2c3cc(F)ccc3Cc3ccccc3[C@H]2C1 (relative stereo) [compound 35, (3S*,4aR*,13bS*)-12-fluoro-N-methyl-2,3,4,4a,9,13b-hexahydrodibenzo[3,4:6,7]-cyclohepta[1,2-b]pyran-3-amine] | 2630 | – | < 6.00 | –
4 | CN1CCN2[C@H](C[C@@H]3c4ccccc4Cc4ccc(F)cc4[C@H]32)C1 [14a, (5aS,14bR,15a,R)-7-fluoro-2-methyl-1,3,4,5a,10,14b,15,1 5a-octahydro-2H-dibenzo-[3′,4′:6′,7′]cyclohepta[1′,2′:4,5]pyrrolo[1,2-a]pyrazine] | – | – | – | pIC50 [1]: 9.05; pIC50 [2]: 8.90; NET Reuptake Inhibition (NET): 5.50; pIC50 [3]: 8.81
5 | COC(=O)N1[C@@H](CN(C)C)C[C@@H]2c3ccccc3Cc3ccc(F)cc3[C@H]21 [36a, Methyl (2R,3aR, 12bS)-2-[(dimethylamino)methyl]-11-fluoro-3,3a,8,12b-tetrahydro dibenzo[3,4:6,7]cyclohepta[1,2-b]pyrrole-1(2H)-carboxylate] | – | – | – | h-5HT2C [1]: <6; h-5HT2A [2]: <6; NET Reuptake Inhibition (NET): 6.16; h-D2L [3]: <6
6 | OCCN1CCN(C[C@H]2C[C@@H]3c4ccccc4Cc4ccc(F)cc4[C@H]3N2)CC1 [43a, 2-(4-{[(2R,3aR,12bS)-11-fluoro-1,2,3,3a,8,12b-hexahydrodibenzo[3,4:6,7]cyclohepta-[1,2-b]pyrrol-2-yl]methyl}-1-piperazinyl)ethanol] | 407 | 427 | < 5.00 | –
7 | CN(CCO)C[C@H]1C[C@@H]2c3ccccc3Cc3ccc(F)cc3[C@H]2N1 [43b, 2-[{[(2R,3aR,12bS)-11-fluoro-1,2,3,3a,8,12b-exahydrodibenzo[3,4:6,7]cyclohepta[1,2-b]pyrrol-2-yl]methyl}(methyl)amino]-ethanol] | – | – | – | h-5HT2C [1]: 7.05; h-5HT2A [2]: 7.17; h-D2L [3]: 6.36
8 | CN(C)C[C@H]1C[C@@H]2c3ccccc3Cc3ccc(F)cc3[C@H]2N1C [compound 5, [(2R,3aR,12bS)-11-fluoro-1-methyl-1,2,3,3a,8,12b-hexahydrodibenzo[3,4:6,7]cyclohepta[1,2-b]pyrrol-2-yl]-N,N-dimethylmethanamine] | 5.37 | 27.5 | – | IC50 [3]: 132 nM
9 | O=C1CNC[C@H]2C[C@@H]3c4ccccc4Cc4ccc(F)cc4[C@H]3N12 [compound 12, (5aS,14bR,15aR)-7-fluoro-1,2,3,5a,10,14b,15,15a-octahydro-4H-dibenzo[3′,4′:6′,7′]-cyclohepta[1′,2′:4,5]pyrrolo[1,2-a]pyrazin-4-one] | – | – | 5.46 | pIC50 [1]: 7.23; IC50 [3]: 832 nM
10 | CN1CC(=O)N2[C@H](C[C@@H]3c4ccccc4Cc4ccc(F)cc4[C@H]32)C1 [compound 13, (5aS,14bR,15aR)-7-fluoro-2-methyl-1,2,3,5a,10,14b,15,15a-octahydro-4H-dibenzo-[3′,4′:6′,7′]cyclohepta[1′,2′:4,5]pyrrolo[1,2-a]pyrazin-4-one] | – | – | – | pIC50 [2]: 7.06; NET Reuptake Inhibition (NET): <5
11 | OCCN1CCN(C[C@H]2C[C@@H]3c4ccccc4Oc4ccc(F)cc4[C@H]3N2)CC1 [compound 19, 2-(4-{[(2R,3aR,12bS)-11-fluoro-2,3,3a,12b-tetrahydro-1H-dibenzo[2,3 :6,7]oxepino-[4,5-b]pyrrol-2-yl]methyl}-1-piperazinyl)ethanol] | 4270 | – | < 5.00 | IC50 [3]: 112 nM
12 | OC1CCN(C[C@H]2C[C@@H]3c4ccccc4Oc4ccc(F)cc4[C@H]3N2)C1 (stereo partly drawn) [compound 20, 1-{[(2R,3aR,12bS)-11-fluoro-2,3,3a,12b-tetrahydro-1H-dibenzo[2,3:6,7]oxepino[4,5-b]pyrrol-2-yl]methyl}-3-pyrrolidinol] | 110 | – | 6.38 | IC50 [3]: 355 nM
13 | CN(C)C[C@@H]1C[C@@H]2c3ccccc3Cc3ccc(F)cc3[C@H]2S1(=O)=O [compound 22, [(2S,3aR,12bS)-11-fluoro-1,1-dioxido-3,3a,8, 12b-tetrahydro-2H-dibenzo[3,4:6,7]-cyclohepta[1,2-b]thien-2-yl]-N,N-dimethylmethanamine] | 1350 | 8510 | 5.32 | –
14 | CN(C)C[C@@H]1C[C@@H]2c3ccccc3Cc3ccc(F)cc3[C@H]2[S@+]1[O-] [compound 25, [(2S,3aR,12bS)-11-fluoro-1-oxido-3,3a,8,12b-tetrahydro-2H-dibenzo[3,4:6,7]cyclohepta[1,2-b]thien-2-yl]-N,N-dimethylmethanamine] | 2240 | > 10000 | 5.54 | –
15 | CN(C)C[C@H]1C[C@@H]2c3ccccc3Cc3ccc(F)cc3[C@H]2[S@+]1[O-] [compound 28, [(2R,3aR,12bS)-11-fluoro-1-oxido-3,3a,8,12b-tetrahydro-2H-dibenzo[3,4:6,7]cyclohepta[1,2-b]thien-2-yl]-N,N-dimethylmethanamine] | 1780 | 7760 | 6.84 | –
16 | Fc1ccc2c(c1)[C@H]1N[C@@H](CN3CCOCC3)C[C@@H]1c1ccccc1C2 [compound 42, (2R,3aR,12bS)-11-fluoro-2-(4-morpholinylmethyl)-1,2,3,3a,8,12b-hexahydrodibenzo-[3,4:6,7]cyclohepta[1,2-b]pyrrole] | 550 | 631 | 5.26 | –
17 | COC(=O)N1[C@@H](CN(C)C)CC[C@@H]2c3ccccc3Cc3ccc(F)cc3[C@H]21 [compound 45, Methyl (2R,4aR,13bS)-2-[(dimethylamino)methyl]-12-fluoro-2,3,4,4a,9,13b-hexahydro-1H-dibenzo[3,4:6,7]cyclohepta[1,2-b]pyridine-1-carboxylate] | 2240 | – | 6.10 | IC50 [3]: > 10000 nM
